Laboratory results: US20200147038A1, “ASSESSING AND TREATING PSYCHEDELIC-[…]” (Eleusis Benefit Corporation, PBC, priority 2017, published 2020)
Where “and” joins values, the source holds several entries; their conditions need not be identical. Equal values may be shown once.

Tests used:
[1] = Retrospective online survey of psilocybin users (Example 2; 5D-ASC Mystical-OBN / Adverse-DED, long-term change); assay type: in vivo, human; settings: for Negative Change, Mean / Positive Change, Mean: 5-point scale, 3=no change; for Flourishing, Mean: 6-point scale; for Importance, Mean: slider scale 1 to 100
From the text: Participants were U.S. residents recruited through Amazon Mechanical Turk (MTurk; an online source in which individuals participate in survey studies for small cash compensation) who had ingested psilocybin within the past twelve months. The final screened sample consisted of 183 valid responses with 97 males (53.0%) and 85 females (46.4%) (1 missing), and an average age of 31.9 (SD=9.43) ranging from 18 to 70 years.
[…]. The six sections included background items, trait measures, prior state (i.e., life situation before psilocybin session), proximal state (i.e., emotions and motivation at ingestion), intrasession measures (i.e., the experience itself), and current state. Scaled items in all but the long-term outcomes used […] Likert scales ranging from 1=Strongly Disagree to 6=Strongly Agree. Open-ended questions designed to activate participants' relevant recollections were completed before responding to scale items related to prior state, proximal state, intrasession, and current status. Measures utilized in the regression models include the following;
Measures of intrasession experience based on items from six subscales of the 5D-ASC (Dittrich et al., A Pharmacopsychiatry 1998, 31:80; Studerus et al., PLoS ONE 2010, 5). Mystical-OBN used a mean of items measuring Oceanic Boundlessness (Studerus et al., PLoS ONE 2012, 7): “experience of unity”, “spiritual experience”, “blissful state”, and “insightfulness”. Adverse-DED was a mean of items associated with Dread of Ego Dissolution (Studerus et al., PLoS ONE 2012, 7): “impaired control and cognition”, and “anxiety.” Scores for Mystical-OBN ranged from 1-5.92 (M=3.87, SD=1.16; α=0.93), and scores for Adverse-DED ranged from 1-5.47 (M=2.25, SD=0.98, α=0.91).
Scale items measuring change based on pairs of adjectives adapted from Griffiths (2006). Individuals used a 5-point scale to indicate whether they had experienced a decrease, no change, or an increase in the characteristics. Positive change was calculated with the mean of nine items related to interpersonal traits, intrapersonal characteristics, and attitudes (Cronbach's α=0.929). Negative change was the mean of three items (α=0.883).
Analyses of the impact of mystical experience on long-term outcomes were conducted in two ways: (1) independent t-test comparisons of each long-term outcome based on a complete or not complete mystical experience, and (2) a path analysis of the mediating role of mystical experience on positive change.
Scores for importance were based on a slider scale ranging from 1 to 100. […] Flourishing was rated on a 6-point scale ranging from 1=strongly disagree to 6=strongly agree.

[2] = Retrospective online survey of individuals who had consumed psilocybin (Example 1; MEQ30, positive change); assay type: in vivo, human
Method: A retrospective survey study was conducted based on crowdsourced online data gathered from individuals who had volitionally consumed psilocybin within the past year. Data were collected about participants' traits and demographic background, and then individuals were primed to recall their life experience before, at the time of ingestion, during, and after the psilocybin before completing scales to measure hypothesized traits and states. Previously validated scales were used where available (e.g., Tellegen Absorption Scale, MEQ30), and new scales were developed and tested for traits and states without existing measures (mental barriers, identity distress, state of surrender). A hierarchical regression model was used to test the relationships, and a path analysis was conducted to test the mediating capacity of ME.
Participants were directed to the relevant webpage after reading informed consent text, completing screening and agreeing to participate in accordance with the stipulations of the Institutional Review Board. Scaled items in all but the long-term outcomes used 4-point Likert scales ranging from 1=Strongly Disagree to 4=Strongly Agree. Answers were required for each item, but each included an option “I prefer not to answer.”
Participants' experiences were measured in two pages on the survey. The first activated their recollection of the experience through an open-ended question asking them to describe their experience and specific fixed response questions about their experience, including whether their eyes were primarily open or closed and the extent to which they were talking or exposed to media with words during their experience. On the second page, subjects responded to […] intermixed items on a 4-point Likert scale from the Mystical Experience Questionnaire (MEQ30) and 36 items from the Sacred Emotions Scale (SES), measuring the extent to which they felt “exuberance” and “dread” during the experience.
The MEQ30 is a validated scale consisting of 30 items systematically validated and utilized in psychedelic studies. Some of the items from the MEQ30 were adapted for this study so that they were semantically consistent with the other scale (e.g., changed “I felt certain that I′d encountered ultimate reality” to “Certainty that I′d encountered ultimate reality”), and used a 4-point rather than a 7-point scale for reasons described above. The scale measures four dimensions of a mystical experience: (a) Mystical; 15 items with α=0.957, (b) Ineffability; 3 items with α=0.775, (c) Timelessness/Spacelessness; 6 items with α=0.844, and (d) Positive Affect; 6 items with α=0.851. The total scale produced Cronbach α=0.967. All of the reliability scores from this sample were similar to internal reliability scores produced in the norming sample (MacLean), which ranged from 0.831 to 0.936 for the four factors and 0.957 for the total scale.
Participants were asked to describe their current state in two pages. […] The second page offered 46 statements including 15 intermixed items adapted from the work of Griffiths et al., (Psychopharmacology 2006, 187:268-283) measuring
Data were collected on Amazon Mechanical Turk (MTurk), an online source in which individuals participate in survey studies for small cash compensation. […] Individuals who were registered as MTurk Workers from the U.S. indicated their interest by accepting the job or the “hit.” If individuals accepted the “hit,” they were directed to a screening page. If they passed those screening items, described below, they were given a link and password to the informed consent followed by the actual survey. • Screening
The mean number of correct attention items in the final sample was 11.5 of 12 (SD=1.02), and the mean for the non-selected group was 4.69 (SD=3.36) attention items answered correctly. The final sample consisted of 143 valid responses with 81 males and 62 females (43%), and an average age of 31.1 (SD=9.64), with ages ranging from 18 to 62 years. […]

[3] = Complete mystical experience, N=51
[4] = None/partial mystical experience, N=129

CN(C)CCc1c[nH]c2cccc(OP(=O)(O)O)c12 [psilocybin]
Adverse-DED score, mean ([1]; 5D-ASC Dread of Ego Dissolution items, whole sample (183)): 2.25
Mystical-OBN score, mean ([1]; 5D-ASC Oceanic Boundlessness items, whole sample (183)): 3.87
Negative Change, Mean [1, 3]: 2.22
Positive Change, Mean [1, 3]: 4.00
Flourishing, Mean [1, 3]: 4.78
Importance, Mean [1, 3]: 75.66
Negative Change, Mean [1, 4]: 2.75 and 2.74
Positive Change, Mean [1, 4]: 3.39
Flourishing, Mean [1, 4]: 4.39
Importance, Mean [1, 4]: 42.75
proportion meeting criteria for a complete ME ([2]; MEQ30, >2.5 of 4 on all four subscales, whole sample): 58%
proportion with a full ME, experienced psychedelic users ([2]; MEQ30, >2.5 of 4 on all subscales, experienced users, n=70): 63%
proportion with a full ME, novice users ([2]; MEQ30, >2.5 of 4 on all subscales, novice users, n=13): 42%
proportion reporting complete MEs, reanalysis with cut point of 3 ([2]; MEQ30, cut point 3 of 4 on all subscales): 45%
Positive Change, Mean ([2]; participants with Complete ME, N=83): 3.8348
Positive Change, Mean ([2]; participants with No/Incomplete ME, N=60): 3.2274
mean positive change score ([2]; whole sample (143 valid responses), higher scores = increases in positive emotions and decreases in negative emotions): 3.58 (SD=0.65)
